Laboratory results: ChEMBL document CHEMBL1127120, “Benzofuran based angiotensi II antagonists related to GR117289: Part II; amino acid amides” (Bioorg Med Chem Lett, 1993)
The source made the active and inactive calls. The rule behind the calls is not given here.

Assays:
[1] = species: Rattus norvegicus; test: Oral activity in renal artery ligated rat model was determined; no significant activity.; assay type: functional, organism-based
[2] = biological target: T1, Type-1 angiotensin II receptor (Oryctolagus cuniculus) (UniProt P34976); test: Affinity for Angiotensin II receptor, type 1 as antagonism of angII contractile effect in rabbit isolated thoracic aorta; assay type: functional, tissue-based
T1 sequence (whole entry): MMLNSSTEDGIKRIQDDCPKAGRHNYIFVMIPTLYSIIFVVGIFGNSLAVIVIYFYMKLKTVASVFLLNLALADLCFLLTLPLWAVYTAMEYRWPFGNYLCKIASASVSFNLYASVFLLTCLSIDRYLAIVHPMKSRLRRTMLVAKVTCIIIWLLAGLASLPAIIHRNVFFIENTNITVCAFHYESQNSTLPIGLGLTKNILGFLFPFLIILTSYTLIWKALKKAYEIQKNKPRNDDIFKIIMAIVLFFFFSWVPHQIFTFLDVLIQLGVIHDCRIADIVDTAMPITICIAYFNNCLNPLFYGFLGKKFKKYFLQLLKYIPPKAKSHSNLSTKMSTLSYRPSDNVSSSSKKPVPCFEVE

[3] = tested on: Rattus norvegicus; test: Oral activity in renal artery ligated rat model was determined; excellent significant activity causing large and sustained fall in blood pressure at a dose of 1 mg/Kg.; assay type: functional, organism-based

Row | pKB [2] | Compound | Activity [1] | Activity [3]
1 | 9 | CCCCc1nc(Cl)c(C(=O)N[C@H](C)C(=O)O)n1Cc1ccc2oc(-c3ccccc3-c3nn[nH]n3)c(Br)c2c1 | inactive | 
2 | 8 | CCCCc1nc(Cl)c(C(=O)N[C@H](Cc2ccccc2)C(=O)O)n1Cc1ccc2oc(-c3ccccc3-c3nn[nH]n3)c(Br)c2c1 | inactive | 
3 | 9.2 | CCCCc1nc(Cl)c(C(=O)N[C@@H](C(=O)O)[C@H](C)CC)n1Cc1ccc2oc(-c3ccccc3-c3nn[nH]n3)c(Br)c2c1 | inactive | 
4 | 9.4 | CCCCc1nc(Cl)c(C(=O)NCC(=O)O)n1Cc1ccc2oc(-c3ccccc3-c3nn[nH]n3)c(Br)c2c1 | inactive | 
5 | 9.4 | CCCCc1nc(Cl)c(C(=O)NCC(N)=O)n1Cc1ccc2oc(-c3ccccc3-c3nn[nH]n3)c(Br)c2c1 | inactive | 
6 | 9.3 | CCCCc1nc(Cl)c(C(=O)NCC(=O)OCC)n1Cc1ccc2oc(-c3ccccc3-c3nn[nH]n3)c(Br)c2c1 |  | Active
7 | 10.9 | CCCCc1ncc(C=C(Cc2cccs2)C(=O)O)n1Cc1ccc2oc(-c3ccccc3-c3nn[nH]n3)c(Br)c2c1 |  | 
8 | 8.9 | CCCCc1nc(Cl)c(C(=O)N[C@@H](C)C(=O)O)n1Cc1ccc2oc(-c3ccccc3-c3nn[nH]n3)c(Br)c2c1 | inactive | 
